Measured values: the supplement of paper PMC10307832

How the values were obtained:
Assay in all cases: relative viability (nuclei count vs DMSO), 5 days (fraction); higher = more cells survive
BX 795 = compound: O=C(NCCCNc1nc(Nc2cccc(NC(=O)N3CCCC3)c2)ncc1I)c1cccs1 [BX 795]
Method in brief: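 For viability, nuclei in each treated well were divided by nuclei in vehicle wells and the median across plates was taken. Lung cancer cell lines in 1536-well plates were pinned with five library-drug doses (not always all listed) spaced by √10, cultured 5 days without medium change, and imaged at 4× after Hoechst staining, with plates passing only at control CV below 25% and at least one doubling.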

BX 795 + AZD7762 = compound: O=C(NCCCNc1nc(Nc2cccc(NC(=O)N3CCCC3)c2)ncc1I)c1cccs1 [BX 795] + NC(=O)Nc1cc(-c2cccc(F)c2)sc1C(=O)N[C@H]1CCCNC1 [AZD7762] (partner 0.2 µM)
Method in brief: (§1)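 Lung cancer cell lines were pin-tool dosed in 1536-well plates on the day after seeding, with either a lone drug or a fixed anchor-drug dose plus five library-drug doses (not always all listed) in √10 steps. Nuclei were counted on 4× images after 5 days. Relative viability is the ratio of treated-well to vehicle-well nuclei counts, with each value a median of duplicate plates.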

BX 795 + Crizotinib = compound: O=C(NCCCNc1nc(Nc2cccc(NC(=O)N3CCCC3)c2)ncc1I)c1cccs1 [BX 795] + C[C@@H](Oc1cc(-c2cnn(C3CCNCC3)c2)cnc1N)c1c(Cl)ccc(F)c1Cl [Crizotinib] (partner 1 µM)
Method in brief: as §1

BX 795 + Bortezomib = compound: O=C(NCCCNc1nc(Nc2cccc(NC(=O)N3CCCC3)c2)ncc1I)c1cccs1 [BX 795] + CC(C)C[C@H](NC(=O)[C@H](Cc1ccccc1)NC(=O)c1cnccn1)B(O)O [Bortezomib] (partner 0.002 µM)
Method in brief: as §1

BX 795 + Foretinib = compound: O=C(NCCCNc1nc(Nc2cccc(NC(=O)N3CCCC3)c2)ncc1I)c1cccs1 [BX 795] + COc1cc2c(Oc3ccc(NC(=O)C4(C(=O)Nc5ccc(F)cc5)CC4)cc3F)ccnc2cc1OCCCN1CCOCC1 [Foretinib] (partner 0.25 µM)
Method in brief: as §1

BX 795 + Linsitinib = compound: O=C(NCCCNc1nc(Nc2cccc(NC(=O)N3CCCC3)c2)ncc1I)c1cccs1 [BX 795] + C[C@]1(O)C[C@@H](c2nc(-c3ccc4ccc(-c5ccccc5)nc4c3)c3c(N)nccn32)C1 [Linsitinib] (partner 1 µM)
Method in brief: as §1

BX 795 + Navitoclax = compound: O=C(NCCCNc1nc(Nc2cccc(NC(=O)N3CCCC3)c2)ncc1I)c1cccs1 [BX 795] + CC1(C)CCC(c2ccc(Cl)cc2)=C(CN2CCN(c3ccc(C(=O)NS(=O)(=O)c4ccc(N[C@H](CCN5CCOCC5)CSc5ccccc5)c(S(=O)(=O)C(F)(F)F)c4)cc3)CC2)C1 [Navitoclax] (partner 0.5 µM)
Method in brief: as §1

BX 795 + Alpelisib = compound: O=C(NCCCNc1nc(Nc2cccc(NC(=O)N3CCCC3)c2)ncc1I)c1cccs1 [BX 795] + Cc1nc(NC(=O)N2CCC[C@H]2C(N)=O)sc1-c1ccnc(C(C)(C)C(F)(F)F)c1 [Alpelisib] (partner 2 µM)
Method in brief: as §1

BX 795 + Pictilisib = compound: O=C(NCCCNc1nc(Nc2cccc(NC(=O)N3CCCC3)c2)ncc1I)c1cccs1 [BX 795] + CS(=O)(=O)N1CCN(Cc2cc3nc(-c4cccc5[nH]ncc45)nc(N4CCOCC4)c3s2)CC1 [Pictilisib] (partner 1 µM)
Method in brief: as §1

BX 795 + Olaparib = compound: O=C(NCCCNc1nc(Nc2cccc(NC(=O)N3CCCC3)c2)ncc1I)c1cccs1 [BX 795] + O=C(c1cc(Cc2n[nH]c(=O)c3ccccc23)ccc1F)N1CCN(C(=O)C2CC2)CC1 [Olaparib] (partner 8 µM)
Method in brief: as §1

BX 795 + Lapatinib = compound: O=C(NCCCNc1nc(Nc2cccc(NC(=O)N3CCCC3)c2)ncc1I)c1cccs1 [BX 795] + CS(=O)(=O)CCNCc1ccc(-c2ccc3ncnc(Nc4ccc(OCc5cccc(F)c5)c(Cl)c4)c3c2)o1 [Lapatinib] (partner 2 µM)
Method in brief: as §1

BX 795 + Phenformin = compound: O=C(NCCCNc1nc(Nc2cccc(NC(=O)N3CCCC3)c2)ncc1I)c1cccs1 [BX 795] + N=C(N)NC(=N)NCCc1ccccc1 [Phenformin] (partner 250 µM)
Method in brief: as §1

BX 795 + Decitabine = compound: O=C(NCCCNc1nc(Nc2cccc(NC(=O)N3CCCC3)c2)ncc1I)c1cccs1 [BX 795] + Nc1ncn([C@H]2C[C@H](O)[C@@H](CO)O2)c(=O)n1 [Decitabine] (partner 2 µM)
Method in brief: as §1

NCI-H1703
relative viability (BX 795; 0.04 µM): 0.469
relative viability (BX 795; 0.1265 µM): 0.806
relative viability (BX 795; 0.4 µM): 0.236
relative viability (BX 795; 1.265 µM): 0.298
relative viability (BX 795 + AZD7762; first compound 0.04 µM): 0.138
relative viability (BX 795 + AZD7762; first compound 0.1265 µM): 0.115
relative viability (BX 795 + AZD7762; first compound 0.4 µM): 0.148
relative viability (BX 795 + AZD7762; first compound 1.265 µM): 0.156
relative viability (BX 795 + Crizotinib; first compound 0.04 µM): 0.317
relative viability (BX 795 + Crizotinib; first compound 0.1265 µM): 0.453
relative viability (BX 795 + Crizotinib; first compound 0.4 µM): 0.148
relative viability (BX 795 + Crizotinib; first compound 1.265 µM): 0.179
relative viability (BX 795 + Bortezomib; first compound 0.04 µM): 0.272
relative viability (BX 795 + Bortezomib; first compound 0.1265 µM): 0.223
relative viability (BX 795 + Bortezomib; first compound 0.4 µM): 0.167
relative viability (BX 795 + Bortezomib; first compound 1.265 µM): 0.159
relative viability (BX 795 + Foretinib; first compound 0.1265 µM): 0.296
relative viability (BX 795 + Foretinib; first compound 0.4 µM): 0.274
relative viability (BX 795 + Foretinib; first compound 1.265 µM): 0.27
relative viability (BX 795 + Linsitinib; first compound 0.1265 µM): 0.622
relative viability (BX 795 + Linsitinib; first compound 0.4 µM): 0.185
relative viability (BX 795 + Linsitinib; first compound 1.265 µM): 0.224
relative viability (BX 795 + Navitoclax; first compound 0.04 µM): 0.8
relative viability (BX 795 + Navitoclax; first compound 0.1265 µM): 1
relative viability (BX 795 + Navitoclax; first compound 0.4 µM): 0.22
relative viability (BX 795 + Navitoclax; first compound 1.265 µM): 0.289
relative viability (BX 795 + Alpelisib; first compound 0.04 µM): 0.211
relative viability (BX 795 + Alpelisib; first compound 0.1265 µM): 0.286
relative viability (BX 795 + Alpelisib; first compound 0.4 µM): 0.194
relative viability (BX 795 + Alpelisib; first compound 1.265 µM): 0.204
relative viability (BX 795 + Pictilisib; first compound 0.1265 µM): 0.201
relative viability (BX 795 + Pictilisib; first compound 0.4 µM): 0.222
relative viability (BX 795 + Pictilisib; first compound 1.265 µM): 0.185
relative viability (BX 795 + Olaparib; first compound 0.1265 µM): 0.283
relative viability (BX 795 + Olaparib; first compound 0.4 µM): 0.229
relative viability (BX 795 + Olaparib; first compound 1.265 µM): 0.152
relative viability (BX 795 + Lapatinib; first compound 0.04 µM): 0.729
relative viability (BX 795 + Lapatinib; first compound 0.1265 µM): 1.11
relative viability (BX 795 + Lapatinib; first compound 0.4 µM): 0.284
relative viability (BX 795 + Lapatinib; first compound 1.265 µM): 0.243

NCI-H1299
relative viability (BX 795; 0.04 µM): 0.972
relative viability (BX 795; 0.1265 µM): 1.03
relative viability (BX 795; 0.4 µM): 1.05
relative viability (BX 795; 1.265 µM): 0.883
relative viability (BX 795 + Crizotinib; first compound 0.04 µM): 1
relative viability (BX 795 + Crizotinib; first compound 0.1265 µM): 0.933
relative viability (BX 795 + Crizotinib; first compound 0.4 µM): 1.01
relative viability (BX 795 + Crizotinib; first compound 1.265 µM): 0.674
relative viability (BX 795 + Bortezomib; first compound 0.04 µM): 1.08
relative viability (BX 795 + Bortezomib; first compound 0.1265 µM): 1.01
relative viability (BX 795 + Bortezomib; first compound 0.4 µM): 1.06
relative viability (BX 795 + Bortezomib; first compound 1.265 µM): 0.938
relative viability (BX 795 + Foretinib; first compound 0.04 µM): 1.13
relative viability (BX 795 + Foretinib; first compound 0.1265 µM): 1.09
relative viability (BX 795 + Foretinib; first compound 0.4 µM): 1.16
relative viability (BX 795 + Foretinib; first compound 1.265 µM): 0.876
relative viability (BX 795 + Linsitinib; first compound 0.04 µM): 0.983
relative viability (BX 795 + Linsitinib; first compound 0.1265 µM): 0.968
relative viability (BX 795 + Linsitinib; first compound 0.4 µM): 0.987
relative viability (BX 795 + Linsitinib; first compound 1.265 µM): 0.767
relative viability (BX 795 + Navitoclax; first compound 0.04 µM): 1.05
relative viability (BX 795 + Navitoclax; first compound 0.1265 µM): 0.996
relative viability (BX 795 + Navitoclax; first compound 0.4 µM): 1.06
relative viability (BX 795 + Navitoclax; first compound 1.265 µM): 0.926
relative viability (BX 795 + Alpelisib; first compound 0.04 µM): 1.05
relative viability (BX 795 + Alpelisib; first compound 0.1265 µM): 1.09
relative viability (BX 795 + Alpelisib; first compound 0.4 µM): 1.07
relative viability (BX 795 + Alpelisib; first compound 1.265 µM): 1
relative viability (BX 795 + Pictilisib; first compound 0.04 µM): 0.759
relative viability (BX 795 + Pictilisib; first compound 0.1265 µM): 0.747
relative viability (BX 795 + Pictilisib; first compound 0.4 µM): 0.751
relative viability (BX 795 + Pictilisib; first compound 1.265 µM): 0.399
relative viability (BX 795 + Olaparib; first compound 0.04 µM): 1.02
relative viability (BX 795 + Olaparib; first compound 0.1265 µM): 0.985
relative viability (BX 795 + Olaparib; first compound 0.4 µM): 0.918
relative viability (BX 795 + Olaparib; first compound 1.265 µM): 0.637
relative viability (BX 795 + Lapatinib; first compound 0.04 µM): 0.885
relative viability (BX 795 + Lapatinib; first compound 0.1265 µM): 0.977
relative viability (BX 795 + Lapatinib; first compound 0.4 µM): 1.02
relative viability (BX 795 + Lapatinib; first compound 1.265 µM): 0.798

A549
relative viability (BX 795; 0.04 µM): 1.01
relative viability (BX 795; 0.1265 µM): 1.08
relative viability (BX 795; 0.4 µM): 0.97
relative viability (BX 795; 1.265 µM): 0.671
relative viability (BX 795 + Crizotinib; first compound 0.04 µM): 0.725
relative viability (BX 795 + Crizotinib; first compound 0.1265 µM): 0.71
relative viability (BX 795 + Crizotinib; first compound 0.4 µM): 0.777
relative viability (BX 795 + Crizotinib; first compound 1.265 µM): 0.128
relative viability (BX 795 + Phenformin; first compound 0.04 µM): 0.23
relative viability (BX 795 + Phenformin; first compound 0.1265 µM): 0.15
relative viability (BX 795 + Phenformin; first compound 0.4 µM): 0.271
relative viability (BX 795 + Phenformin; first compound 1.265 µM): 0.112
relative viability (BX 795 + Decitabine; first compound 0.04 µM): 0.332
relative viability (BX 795 + Decitabine; first compound 0.1265 µM): 0.289
relative viability (BX 795 + Decitabine; first compound 0.4 µM): 0.329
relative viability (BX 795 + Decitabine; first compound 1.265 µM): 0.282
relative viability (BX 795 + Foretinib; first compound 0.04 µM): 0.911
relative viability (BX 795 + Foretinib; first compound 0.1265 µM): 1.02
relative viability (BX 795 + Foretinib; first compound 0.4 µM): 1.03
relative viability (BX 795 + Foretinib; first compound 1.265 µM): 0.647
relative viability (BX 795 + Linsitinib; first compound 0.04 µM): 0.579
relative viability (BX 795 + Linsitinib; first compound 0.1265 µM): 0.646
relative viability (BX 795 + Linsitinib; first compound 0.4 µM): 0.574
relative viability (BX 795 + Linsitinib; first compound 1.265 µM): 0.552
relative viability (BX 795 + Navitoclax; first compound 0.04 µM): 1.19
relative viability (BX 795 + Navitoclax; first compound 0.1265 µM): 1.24
relative viability (BX 795 + Navitoclax; first compound 0.4 µM): 1.47
relative viability (BX 795 + Navitoclax; first compound 1.265 µM): 0.739
relative viability (BX 795 + Alpelisib; first compound 0.04 µM): 0.761
relative viability (BX 795 + Alpelisib; first compound 0.1265 µM): 0.731
relative viability (BX 795 + Alpelisib; first compound 0.4 µM): 0.6
relative viability (BX 795 + Alpelisib; first compound 1.265 µM): 0.267
relative viability (BX 795 + Pictilisib; first compound 0.04 µM): 0.51
relative viability (BX 795 + Pictilisib; first compound 0.1265 µM): 0.47
relative viability (BX 795 + Pictilisib; first compound 0.4 µM): 0.449
relative viability (BX 795 + Pictilisib; first compound 1.265 µM): 0.134
relative viability (BX 795 + Olaparib; first compound 0.04 µM): 0.495
relative viability (BX 795 + Olaparib; first compound 0.1265 µM): 0.379
relative viability (BX 795 + Olaparib; first compound 0.4 µM): 0.279
relative viability (BX 795 + Olaparib; first compound 1.265 µM): 0.219
relative viability (BX 795 + Lapatinib; first compound 0.04 µM): 0.999
relative viability (BX 795 + Lapatinib; first compound 0.1265 µM): 0.88
relative viability (BX 795 + Lapatinib; first compound 0.4 µM): 1
relative viability (BX 795 + Lapatinib; first compound 1.265 µM): 0.146
